Measurements published in patent US8168651B2, “Protein kinase modulators” (Cylene Pharmaceuticals, Inc., priority 2008, dated 2012).

Experiments:
[1] = tested on: HCT-116 human colorectal carcinoma cells; experiment: Cell-proliferation assay using Alamar Blue dye; assay type: cell-based; details: Homo sapiens, HCT-116, second HCT-116 column (c8); read-out: HCT-116 (uM) cell proliferation modulatory activity;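 also: cells exposed to compound for about 4 days, then Alamar Blue added and dye fluorescence read after about 4 h, compared with medium-only control wells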
[2] = biological target: recombinant human CK2 (Homo sapiens (Human), UniProt P68400); experiment: CK2 assay (cell-free, 33P-ATP filter plate); assay type: biochemical; details: 500 nM compound, cell-free assay; read-out: CK2: % inh 500 nM
[3] = tested on: K-562; experiment: Cell proliferation modulatory activity, K-562; assay type: cell-based; details: Homo sapiens, K562; K-562 cells
[4] = tested on: MV-4-11; experiment: Cell proliferation modulatory activity, MV-4-11; assay type: cell-based; details: Homo sapiens, MV4-11; MV-4-11 cells
[5] = biological target: recombinant human PIM1 (Homo sapiens (Human), UniProt P11309); experiment: PIM-1 kinase activity in cell-free in vitro assay; assay type: biochemical; details: cell-free assay; for inhibition at 0.5 µM: 500 nM compound, read-out: PIM-1: % inh 500 nM
Sequence of recombinant human PIM1 (P11309 whole entry): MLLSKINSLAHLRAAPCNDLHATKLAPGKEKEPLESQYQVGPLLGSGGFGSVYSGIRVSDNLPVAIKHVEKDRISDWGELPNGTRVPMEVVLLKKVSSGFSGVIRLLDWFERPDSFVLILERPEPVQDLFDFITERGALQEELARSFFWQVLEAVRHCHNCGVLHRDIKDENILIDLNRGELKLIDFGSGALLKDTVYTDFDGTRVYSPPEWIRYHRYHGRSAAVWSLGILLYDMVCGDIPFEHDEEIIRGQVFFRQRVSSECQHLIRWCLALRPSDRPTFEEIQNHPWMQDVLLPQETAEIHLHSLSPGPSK

Sequence of recombinant human CK2 (P68400 whole entry): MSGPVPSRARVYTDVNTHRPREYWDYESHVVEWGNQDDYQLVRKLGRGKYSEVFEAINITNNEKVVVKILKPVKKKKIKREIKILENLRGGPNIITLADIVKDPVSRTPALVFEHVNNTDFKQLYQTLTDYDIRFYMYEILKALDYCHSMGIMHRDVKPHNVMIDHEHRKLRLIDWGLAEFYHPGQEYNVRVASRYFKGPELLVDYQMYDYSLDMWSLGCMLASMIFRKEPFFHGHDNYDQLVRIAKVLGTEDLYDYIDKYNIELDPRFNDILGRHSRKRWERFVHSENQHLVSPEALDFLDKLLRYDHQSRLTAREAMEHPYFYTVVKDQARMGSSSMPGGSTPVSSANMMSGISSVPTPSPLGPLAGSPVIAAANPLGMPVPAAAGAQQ
Sequence of recombinant human CK2 (P67870 whole entry partner): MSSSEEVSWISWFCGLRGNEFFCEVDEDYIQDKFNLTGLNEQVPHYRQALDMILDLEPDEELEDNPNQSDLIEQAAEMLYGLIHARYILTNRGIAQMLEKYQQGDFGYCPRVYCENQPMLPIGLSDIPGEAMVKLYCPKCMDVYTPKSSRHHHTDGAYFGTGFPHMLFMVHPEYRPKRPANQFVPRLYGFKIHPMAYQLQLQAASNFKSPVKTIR

Row | IC50 [1] | inhibition at 0.5 µM [2] | IC50 [3] | IC50 [4] | inhibition at 0.5 µM [5] | IC50 [5] | Compound
1 | > 10 µM | 86.1% | > 10 µM | > 10 µM | 93.4% | 0.046 µM | c1cc2c(NCC3CCCN3)nc3cc(-c4nnn[nH]4)ccc3c2s1 (centres unmarked)
2 | 2.73 µM | -23.8% | > 10 µM | 2.44 µM | 14.1% |  | N#Cc1ccc2c(c1)nc(NCC1CCCN1)c1ccsc12 (centres unmarked)
3 | > 10 µM | 57.3% | > 10 µM | > 10 µM | 11.4% |  | Fc1cc(Cl)cc(Nc2nc3cc(-c4nnn[nH]4)ccc3c3cscc23)c1
4 | > 10 µM | 31.4% | > 10 µM | 0.658 µM | 90.9% | 0.109 µM | CN1CCCC(Nc2nc3cc(-c4nnn[nH]4)ccc3c3sccc23)C1 (centres unmarked)
5 | > 10 µM | -6.52% | > 10 µM | 1.81 µM | -20.3% |  | N#Cc1ccc2c(c1)nc(Cl)c1cscc12
6 | 0.397 µM | 55.7% | 0.175 µM | 0.174 µM | 103% | 0.098 µM | CCN1CCCC1CNc1nc2cc(-c3nnn[nH]3)ccc2c2sccc12 (centres unmarked)
7 | > 10 µM | 91.7% | > 10 µM | > 10 µM | 39.9% |  | CC(C)Nc1ncc2c(n1)c(N(C)c1ccccc1)nc1cc(C(=O)O)ccc12
8 | > 10 µM | 11.8% | > 10 µM | 0.999 µM | -3.56% |  | CN(C)CCNc1nc2cc(C(=O)N(C)C)ccc2c2sccc12
9 | > 10 µM | 39.5% | > 10 µM | 6.44 µM | 15.2% |  | Clc1ccc(Nc2nc3cc(-c4nnn[nH]4)ccc3c3cscc23)cc1
10 | > 10 µM | 0.786% | > 10 µM | 7.04 µM | 7% |  | c1ccc(Nc2nc3ccccc3c3cnccc23)cc1
11 | > 10 µM | 32.8% | > 10 µM | > 10 µM | 90.9% | 0.064 µM | CN1CCCCC1CNc1nc2cc(-c3nnn[nH]3)ccc2c2sccc12 (centres unmarked)
12 | > 10 µM | 5.71% | > 10 µM | > 10 µM | 13.7% |  | O=C(O)c1ccc2c(c1)nc(NCCc1ccccc1)c1cccnc12
13 | 1.52 µM | -0.704% | 1.09 µM | 0.73 µM | -6.89% |  | COC(=O)c1ccc2c(c1)nc(NCCN(C)C)c1ccsc12
14 | > 10 µM | 101% | > 10 µM | > 10 µM | 79.1% | 0.281 µM | O=C(O)c1ccc2c(c1)nc(Nc1cccc3ncccc13)c1ccncc12
15 | > 10 µM | 99.5% | > 10 µM | 3.16 µM | 72.4% | 0.485 µM | CC(C)c1cccc(Nc2nc3cc(C(=O)O)ccc3c3cnccc23)c1
16 | > 10 µM | 9.99% | > 10 µM | > 10 µM | -2.61% |  | Clc1nc2ccccc2c2cnccc12
17 | > 10 µM | 89.6% | > 10 µM | > 10 µM | 34.8% |  | CN(c1cccc(Cl)c1)c1nc2cc(C(=O)O)ccc2c2cnccc12
18 | > 10 µM | 30.8% | > 10 µM | 1.15 µM | 63.6% | 0.489 µM | NC1CCN(c2nc3cc(-c4nnn[nH]4)ccc3c3sccc23)C1 (centres unmarked)
19 | > 10 µM | 98% | 0.132 µM | 9.31 µM | 60.6% | 0.478 µM | Cc1ccc(Nc2nc3cc(C(=O)O)ccc3c3cnccc23)cc1
20 | > 10 µM | -11.5% | > 10 µM | > 10 µM | -23.9% |  | N#Cc1ccc2c(c1)nc(Cl)c1sccc12
21 | > 10 µM | -14.9% | > 10 µM | > 10 µM | -0.12% |  | N#Cc1ccc2c(c1)nc(NCCn1ccnc1)c1ccsc12
22 | > 10 µM | 7.3% | > 10 µM | > 10 µM | 81.3% | 0.178 µM | CN1CCN(c2nc3cc(-c4nnn[nH]4)ccc3c3sccc23)CC1
23 | > 10 µM | 3.48% | > 10 µM | > 10 µM | 7.13% |  | CC(=O)N1CCN(c2nc3cc(C#N)ccc3c3sccc23)CC1
24 | > 10 µM | 31.1% | > 10 µM | > 10 µM | 59.1% | > 1.1 µM | CCCNc1nc2cc(-c3nnn[nH]3)ccc2c2sccc12

Row | IC50 [1] | inhibition at 0.5 µM [2] | IC50 [3] | IC50 [4] | inhibition at 0.5 µM [5] | IC50 [5] | Compound
25 | > 10 µM | 15.6% | > 10 µM | 2.94 µM | 39.1% |  | COC(=O)c1ccc2c(c1)nc(NCCOC(C)C)c1ccncc12
26 | > 10 µM | 65% | > 10 µM | 6.15 µM | 19% |  | CNc1ccc(C#N)cc1Nc1nc2cc(C(=O)O)ccc2c2cnccc12
27 | 1.42 µM | -17.5% | 5.06 µM | 3.23 µM | 20.8% |  | CN1CCCC(Nc2nc3cc(C#N)ccc3c3sccc23)C1 (centres unmarked)
28 | > 10 µM | 69.3% | > 10 µM | 5.81 µM | 9.61% |  | O=C(O)c1ccc2c(c1)nc(Nc1cccc(Cl)c1)c1nccnc12
29 | > 10 µM | -9.58% | > 10 µM | > 10 µM | 6.38% |  | N#Cc1ccc2c(c1)nc(NCC(O)c1ccccc1)c1ccsc12 (centres unmarked)
30 | > 10 µM | 78.1% | > 10 µM | > 10 µM | 89.9% | 0.065 µM | CCN1CCC[C@@H]1CNc1nc2cc(-c3nnn[nH]3)ccc2c2sccc12
31 | > 10 µM | 94.5% | > 10 µM | > 10 µM | 86.6% | 0.147 µM | CNc1ncc2c(n1)c(N(C)c1ccccc1)nc1cc(C(=O)O)ccc12
32 | > 10 µM | 60.1% | > 10 µM | > 10 µM | 70.5% | 0.221 µM | CN(C)CCCN(C)c1nc2cc(-c3nnn[nH]3)ccc2c2sccc12
33 | > 10 µM | -5.09% | > 10 µM | > 10 µM | 78.2% | 0.248 µM | NC(=O)c1ccc(Nc2nc3cc(C(=O)O)ccc3c3cnccc23)cc1
34 | > 10 µM | 44.5% | > 10 µM | > 10 µM | 19.4% |  | CN(CCc1ccccn1)c1nc2cc(C#N)ccc2c2sccc12
35 | > 10 µM | 27.9% | > 10 µM | 1 µM | 16.8% |  | c1ccc(CNc2nc3cc(-c4nnn[nH]4)ccc3c3sccc23)nc1
36 | 4.29 µM | 15.6% | 0.198 µM | 0.402 µM | 34% |  | CN(C)CCNc1nc2cc(C(N)=O)ccc2c2sccc12
37 | > 10 µM | 11% | > 10 µM | > 10 µM | 10% |  | CC(C)(C)OC(=O)NC1CCN(c2nc3cc(C#N)ccc3c3sccc23)C1 (centres unmarked)
38 | > 10 µM | 91.8% | 0.339 µM | > 10 µM | 28% |  | CCN(c1ccccc1)c1nc2cc(C(=O)O)ccc2c2cnccc12
39 | > 10 µM | -17.1% | > 10 µM | > 10 µM | -19% |  | CN(c1nc2cc(C#N)ccc2c2sccc12)C(C1CC1)C1CC1
40 | 4.41 µM | 0.724% | 6.5 µM | 3.74 µM | 8.14% |  | CN1CCCC1CNc1nc2cc(C#N)ccc2c2sccc12 (centres unmarked)
41 | > 10 µM | 52.6% | > 10 µM | > 10 µM | 87.3% | 0.127 µM | CCN(CC)CCNc1nc2cc(-c3nnn[nH]3)ccc2c2sccc12
42 | 6.57 µM | -0.522% | > 10 µM | 6.05 µM | 20.3% |  | CN(C)C1CCN(c2nc3cc(C#N)ccc3c3sccc23)CC1
43 | 2.34 µM | 76.2% | > 10 µM | 1.43 µM | 26.2% |  | Cc1c(-c2ccccc2)nn(C)c1Nc1nc2cc(C(=O)O)ccc2c2cnccc12
44 | > 10 µM | -9.4% | > 10 µM | > 10 µM | -32.8% |  | N#Cc1ccc2c(c1)nc(Nc1cccc(Cl)c1)c1cscc12
45 | 0.9 µM | 8.15% | 1.25 µM | 0.368 µM | 17.8% |  | COC(=O)c1ccc2c(c1)nc(NCCN1CCCC1)c1ccncc12
46 | > 10 µM | 38.6% | > 10 µM | 1.07 µM | 90% | 0.119 µM | c1cc2c(N3CCC(N4CCCC4)CC3)nc3cc(-c4nnn[nH]4)ccc3c2s1
47 | > 10 µM | -11.5% | > 10 µM | > 10 µM | -30.8% |  | CC(C)(C)OC(=O)NCCCNc1nc2cc(C#N)ccc2c2sccc12
